Laboratory results: US5700774A, “Compositions comprising bone morphogenic proteins and truncated parathyroid hormone related peptide, and methods of inducing cartilage by administration of same” (Genetics Institute, Inc., priority 1996, dated 1997)

Test system: cell lines derived from E13 mouse limb buds
Assay: Northern analysis of tissue specific mRNA expression in limb bud cell lines
Assay type: cell-based
Conditions: PTHrP1-34 alone, 100 ng/ml, 1, 2, 4 or 8 days
Description: PTHrP was tested for its effect on cell lines derived from E13 mouse limb buds either alone or in combination with BMP-2. Cells were grown to confluence in DME medium supplemented with 10% fetal calf serum (FCS). At confluence, cells were transferred to DME medium supplemented with 1% FCS and cultured for 1, 2, 4 or 8 days in the presence of either BMP-2 (100 ng/ml), PTHrP1-34 (100 ng/ml)(Peninsular Laboratories Inc). or a combination of BMP-2 and PTHrP1-34. Northern analysis was used to determine expression of tissue specific mRNAs for cartilage (proteoglycan core protein, collagen type II and decorin), bone (osteocalcin, alkaline phosphatase and collagen type I) and hypertrophic cartilage (collagen type X).

For “PTHrP1-34: truncated peptide which comprises the first 34 amino acids of PTHrP (Peninsular Laboratories Inc)”, the “expression of any of the tissue specific mRNAs (cartilage, bone, hypertrophic cartilage markers)” value was “did not induce expression”.
